From PMC11788587, “Validating Low‐Dose Iohexol as a Marker for Glomerular Filtration Rate by In Vitro and In Vivo Studies” (Clinical and Translational Science, 2025)

Biological target: T1, hMDR1 (Homo sapiens, UniProt P08183)
T1 construct: purchased Pharm Tox, Netherlands; host or cells: HEK293 cells (membrane vesicles)
Assay: Inhibition of hMDR1-mediated 3H-NMQ uptake, inside-out membrane vesicles
Type: biochemical
Settings: substrate 0.01 µM 3H-NMQ, median (95% CI)
Text: We characterized the inhibitory potential of iohexol on major drug transporters recommended by regulatory agencies, which were previously assessed in a clinical transporter phenotyping cocktail study. These transporters include hOAT1, hOAT3, hOCT1, hOCT2, hMATE1, hMATE2K, human organic anion transporter polypeptides (hOATP)1B1, hOATP1B3, and human multidrug resistance protein (hMDR)1. Additionally, we investigated whether iohexol is a substrate for any of the renal transporters among these, including hOAT1/3, hOCT1/2, and hMATE1/2K. Cell‐based uptake assays were used to assess the activities of hOAT1/3, hOCT1/2, hMATE1/2K, and hOATP1B1/1B3. Inside‐out membrane vesicle uptake assays were used to evaluate the activity of hMDR1.
To determine the maximal inhibitory potential of iohexol, intracellular accumulation of a standard substrate was measured with and without the clinically relevant highest concentrations of iohexol. Control inhibitors were tested in each experiment.
In all subsequent in vitro studies, control experiments were conducted to validate the results. […] Each condition, including cells or vesicles with the transporter and their respective controls, was analyzed in at least three replicates. […]
R version 4.2.1 (R Foundation for Statistical Computing, Vienna, Austria) was used for statistical evaluations and data visualization. The data analysis approach for the in vitro study was detailed by Hsin CH et al..^1 In brief, for transport assays, the initial uptake rate was calculated by normalizing the substrate concentration to both the protein concentration and the incubation time for each dish or well. The transporter-mediated uptake rate (net uptake) was determined by performing an element-wise subtraction of uptake rates from different conditions. […] Net uptake rates were determined by subtracting the uptake rate of the control cells or vesicles from that of the transporter-expressing cells or vesicles for each pair. […]

T1 sequence (P08183 whole entry): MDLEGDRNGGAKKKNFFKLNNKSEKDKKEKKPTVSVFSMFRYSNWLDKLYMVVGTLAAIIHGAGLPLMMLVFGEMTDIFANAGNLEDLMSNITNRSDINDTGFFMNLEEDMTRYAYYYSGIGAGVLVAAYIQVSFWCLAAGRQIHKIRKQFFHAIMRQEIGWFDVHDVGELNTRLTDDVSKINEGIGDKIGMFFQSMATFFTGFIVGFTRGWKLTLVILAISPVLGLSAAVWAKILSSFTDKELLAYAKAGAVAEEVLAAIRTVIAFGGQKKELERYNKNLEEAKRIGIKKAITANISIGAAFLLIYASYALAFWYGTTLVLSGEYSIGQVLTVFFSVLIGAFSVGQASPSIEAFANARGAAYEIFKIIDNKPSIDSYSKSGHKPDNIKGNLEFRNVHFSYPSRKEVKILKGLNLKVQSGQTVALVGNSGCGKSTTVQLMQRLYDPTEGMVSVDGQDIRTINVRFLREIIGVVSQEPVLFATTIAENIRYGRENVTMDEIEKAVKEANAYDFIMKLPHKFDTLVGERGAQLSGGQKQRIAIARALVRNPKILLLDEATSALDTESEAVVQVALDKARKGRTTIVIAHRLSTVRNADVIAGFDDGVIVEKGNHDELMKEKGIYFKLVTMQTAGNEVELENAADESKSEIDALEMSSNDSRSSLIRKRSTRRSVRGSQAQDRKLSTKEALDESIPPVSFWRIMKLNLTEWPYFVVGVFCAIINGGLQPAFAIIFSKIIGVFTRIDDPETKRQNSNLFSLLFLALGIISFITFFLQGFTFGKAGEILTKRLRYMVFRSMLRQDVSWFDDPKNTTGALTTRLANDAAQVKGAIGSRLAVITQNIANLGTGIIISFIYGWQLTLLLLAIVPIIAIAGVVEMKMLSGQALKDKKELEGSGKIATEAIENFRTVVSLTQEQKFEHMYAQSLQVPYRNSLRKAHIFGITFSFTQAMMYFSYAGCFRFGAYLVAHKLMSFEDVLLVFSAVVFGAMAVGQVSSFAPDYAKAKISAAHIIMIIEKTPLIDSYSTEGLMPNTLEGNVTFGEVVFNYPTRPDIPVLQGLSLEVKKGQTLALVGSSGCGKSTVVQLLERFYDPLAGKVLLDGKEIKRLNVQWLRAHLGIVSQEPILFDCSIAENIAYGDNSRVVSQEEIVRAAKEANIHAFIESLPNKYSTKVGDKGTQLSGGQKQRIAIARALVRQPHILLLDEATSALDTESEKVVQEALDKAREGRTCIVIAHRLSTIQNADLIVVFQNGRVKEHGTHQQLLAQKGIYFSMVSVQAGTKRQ

Inhibitory effect (% reduction of specific activity) (20 mM iohexol): < 30% | inhibition at 1 min, 2 mM (human, probe 3H-NMQ (N-methyl-quinidine), 0.01 µM, 2 mM iohexol, read-out: Inhibitory effect (% reduction of specific activity)): -4.9% | inhibition at 1 min, 20 mM (human, probe 3H-NMQ (N-methyl-quinidine), 0.01 µM, 20 mM iohexol, read-out: Inhibitory effect (% reduction of specific activity)): 21%
SMILES: CC(=O)N(CC(O)CO)c1c(I)c(C(=O)NCC(O)CO)c(I)c(C(=O)NCC(O)CO)c1I (stereo not drawn) [iohexol]
